In patent US6596288B2, “Use of sterols as active ingredient in a cosmetic composition against adiposity” (Codif International SA, priority 2000, dated 2003):

What was measured:
[1] = tested on: human adipocytes; experiment: incorporation of [2-14C]-acetate into lipids (LIPOGENESIS) by isolated human adipocytes; type: cell-based; conditions: for % control (incorporation of acetate) / % inhibition (incorporation of acetate) / Average of cpm (incorporation of acetate) / cpm - t0 test (incorporation of acetate) / inhibition at 10 µM / inhibition at 100 µM / inhibition at 1000 µM: 4 h; for inhibition at 10 µM / inhibition at 100 µM / inhibition at 1000 µM: Homo sapiens, Adipocyte
Procedure: (§1) In these experiments, adipocytes were isolated from abdominal restorative surgeries sampled in women. The experiment took place the day of the sampling. Fragments of adipose tissues were incubated for 30 minutes at 37° C. in the presence of collagenase, then the isolated adipocytes were washed and taken up in medium MEM buffered with bicarbonate, in the presence of antibiotics (penicillin/streptomycin), glutamine (2 mM), and delipidated bovine serum albumin (0.5%).
The tests concerning the effect on lipogenesis were then conducted in the following manner.
Adipocytes (90 μl of ¼ diluted suspension) were incubated for 1 hour, either with a control medium (4 hours), with molecules known to inhibit the neosynthesis of fatty acids (EPA), as for example […], or with previously diluted extracts (added under 100 μl).
As to the sterols and to the lipidic extracts of plants or algae, they were diluted in mineral oil which has been verified to not inhibit incorporation or extraction of adipocyte lipids. Then, 10 μl of [2^14C]-acetate, 50 μCi/ml, were added, and the samples were either cultivated at 37° C. in the presence of 5% CO2 for 4 additional hours, or immediately frozen at −80° C. (control t0).
At the times indicated, the samples were frozen at −80° C. The lipids were then extracted according to the method of Bligh and Dyer (extraction methanol/chloroform/water), then dried under nitrogen. The radioactivity incorporated was then counted by liquid scintillation.

[2] = tested on: human adipocytes; experiment: liberation of NEFA (non-esterified fatty acids) (LIPOLYSIS) by isolated human adipocytes; type: cell-based; conditions: for % Control (NEFA liberation) / Average of the NEFA: 2 hours at 37° C.
Procedure: as §1
As to the tests concerning the effect on lipolysis, they were conducted in the following manner. Adipocytes (540 μl of suspension) were incubated for 2 hours in a water bath at 37° C., with agitation, in the presence of 60 μl of different sterols. The experiments were carried out in triplicate.
Then, the non-esterified fatty acids (AGNE) released by the adipocytes were determined in the sub-adipocyte media. The values obtained were treated by an analysis of variance (ANOVA) by means of the multiple comparison test of Dunnett. The values were considered as significant when the probability p was less than the threshold of significance 0.05.

[3] = 0.01 mM (10^−5 M), absence of insulin
[4] = 0.01 mM (10^−5 M), presence of insulin (1 nM)
[5] = 0.1 mM (10^−4 M), absence of insulin
[6] = 0.1 mM (10^−4 M), presence of insulin (1 nM)
[7] = 1 mM (10^−3 M), absence of insulin
[8] = 1 mM (10^−3 M), presence of insulin (1 nM)
[9] = 10^−6 M, 10^−5 M, 10^−4 M, 10^−3 M and 10^−2 M

insulin
increase of the incorporation of acetate ([1]; 1 nM of insulin): 16%
increase of the incorporation of acetate ([1]; 100 nM of insulin, another donor): 120%

CC[C@H](/C=C/[C@@H](C)[C@H]1CC[C@H]2[C@@H]3CC=C4C[C@@H](O)CC[C@]4(C)[C@H]3CC[C@]12C)C(C)C [Stigmasterol, stigmasterol]
% control (incorporation of acetate) [1, 3]: 95%
% inhibition (incorporation of acetate) [1, 3]: weak and non-significant
Average of cpm (incorporation of acetate) [1, 3]: 198442 cpm
cpm - t0 test (incorporation of acetate) [1, 3]: 191977 cpm
% control (incorporation of acetate) [1, 4]: 98%
% inhibition (incorporation of acetate) [1, 4]: 2%
Average of cpm (incorporation of acetate) [1, 4]: 235529 cpm
cpm - t0 test (incorporation of acetate) [1, 4]: 229064 cpm
% inhibition (incorporation of acetate) ([1]; 0.01 mM (10^−5 M), presence of insulin (1 nM), listed as stigmasterol): less than 5%
% control (incorporation of acetate) [1, 5]: 96%
% inhibition (incorporation of acetate) [1, 5]: weak and non-significant
Average of cpm (incorporation of acetate) [1, 5]: 200467 cpm
cpm - t0 test (incorporation of acetate) [1, 5]: 194002 cpm
% control (incorporation of acetate) [1, 6]: 97%
% inhibition (incorporation of acetate) [1, 6]: 3%
Average of cpm (incorporation of acetate) [1, 6]: 234524 cpm
cpm - t0 test (incorporation of acetate) [1, 6]: 228059 cpm
% control (incorporation of acetate) [1, 7]: 101%
% inhibition (incorporation of acetate) [1, 7]: weak and non-significant
Average of cpm (incorporation of acetate) [1, 7]: 210055 cpm
cpm - t0 test (incorporation of acetate) [1, 7]: 203590 cpm
% control (incorporation of acetate) [1, 8]: 94%
% inhibition (incorporation of acetate) [1, 8]: 6%
Average of cpm (incorporation of acetate) [1, 8]: 227385 cpm
cpm - t0 test (incorporation of acetate) [1, 8]: 220920 cpm
inhibition at 10 µM [1, 3]: 5%
inhibition at 100 µM [1, 5]: 4%
inhibition at 100 µM [1, 6]: < 5%
inhibition at 1000 µM [1, 7]: 0%
inhibition at 1000 µM [1, 8]: < 5%
liberation of fatty acids by isolated human adipocytes (conclusion) [2]: increases the liberation of fatty acids
% Control (NEFA liberation) ([2]; 10^−2 M): 112%
Average of the NEFA ([2]; 10^−2 M): 158 µM
% Control (NEFA liberation) ([2]; 10^−3 M (1 mM)): 126%
Average of the NEFA ([2]; 10^−3 M (1 mM)): 178 µM
% Control (NEFA liberation) ([2]; 10^−4 M): 133%
Average of the NEFA ([2]; 10^−4 M): 189 µM
% Control (NEFA liberation) ([2]; 10^−5 M): 128%
Average of the NEFA ([2]; 10^−5 M): 180 µM
% Control (NEFA liberation) ([2]; 10^−6 M (1 μM)): 112%
Average of the NEFA ([2]; 10^−6 M (1 μM)): 158 µM
effect on liberation of NEFA ([2]; 10^−6 M and 10^−2 M): did not show significant effect

CC(C)NCC(O)c1ccc(O)c(O)c1 (stereo not shown) [Isoproterenol, isoproterenol, reference compound]
stimulation of lipolysis ([2]; 1 μM, p<0.05): stimulated the lipolysis
% Control (NEFA liberation) ([2]; 10^−6 M (1 μM)): 342%
Average of the NEFA ([2]; 10^−6 M (1 μM)): 483 µM

Cn1c(=O)c2[nH]cnc2n(C)c1=O [Theophylline, theophylline, reference compound]
stimulation of lipolysis ([2]; 1 nM, p<0.05): stimulated the lipolysis
% Control (NEFA liberation) ([2]; 10^−3 M (1 mM)): 390%
Average of the NEFA ([2]; 10^−3 M (1 mM)): 551 µM

CC/C=C\C/C=C\C/C=C\C/C=C\C/C=C\CCCC(=O)O [EPA, eicosapentanoic acid, reference compound]
% control (incorporation of acetate) [1, 5]: 18%
% inhibition (incorporation of acetate) [1, 5]: 82%
Average of cpm (incorporation of acetate) [1, 5]: 43253 cpm
cpm - t0 test (incorporation of acetate) [1, 5]: 36788 cpm
% control (incorporation of acetate) [1, 6]: 38%
% inhibition (incorporation of acetate) [1, 6]: 62%
Average of cpm (incorporation of acetate) [1, 6]: 96244 cpm
cpm - t0 test (incorporation of acetate) [1, 6]: 89779 cpm
% control (incorporation of acetate) [1, 7]: 3%
% inhibition (incorporation of acetate) [1, 7]: 97%
Average of cpm (incorporation of acetate) [1, 7]: 1287 cpm
cpm - t0 test (incorporation of acetate) [1, 7]: 6373 cpm
% control (incorporation of acetate) [1, 8]: 3%
% inhibition (incorporation of acetate) [1, 8]: 97%
Average of cpm (incorporation of acetate) [1, 8]: 13384 cpm
cpm - t0 test (incorporation of acetate) [1, 8]: 6919 cpm

CC[C@H](CC[C@@H](C)[C@H]1CC[C@H]2[C@@H]3CC=C4C[C@@H](O)CC[C@]4(C)[C@H]3CC[C@]12C)C(C)C [Beta-sitosterol, beta-sitosterol]
incorporation of acetate by isolated human adipocytes (conclusion) [1]: inhibit the incorporation of acetate
% control (incorporation of acetate) [1, 3]: 96%
% inhibition (incorporation of acetate) [1, 3]: 4%
Average of cpm (incorporation of acetate) [1, 3]: 200044 cpm
cpm - t0 test (incorporation of acetate) [1, 3]: 193579 cpm
% inhibition (incorporation of acetate) ([1]; 0.01 mM (10^−5 M), absence of insulin, listed as beta-sitosterol): weak and non-significant
% control (incorporation of acetate) [1, 4]: 89%
Average of cpm (incorporation of acetate) [1, 4]: 216417 cpm
cpm - t0 test (incorporation of acetate) [1, 4]: 209952 cpm
% control (incorporation of acetate) [1, 5]: 95%
% inhibition (incorporation of acetate) [1, 5]: 5%
Average of cpm (incorporation of acetate) [1, 5]: 198694 cpm
cpm - t0 test (incorporation of acetate) [1, 5]: 192229 cpm
% inhibition (incorporation of acetate) ([1]; 0.1 mM (10^−4 M), absence of insulin, listed as beta-sitosterol): weak and non-significant
% control (incorporation of acetate) [1, 6]: 93%
Average of cpm (incorporation of acetate) [1, 6]: 224445 cpm
cpm - t0 test (incorporation of acetate) [1, 6]: 217980 cpm
% control (incorporation of acetate) [1, 7]: 84%
% inhibition (incorporation of acetate) [1, 7]: 16%
Average of cpm (incorporation of acetate) [1, 7]: 175711 cpm
cpm - t0 test (incorporation of acetate) [1, 7]: 169246 cpm
% control (incorporation of acetate) [1, 8]: 83%
% inhibition (incorporation of acetate) [1, 8]: 17%
Average of cpm (incorporation of acetate) [1, 8]: 201168 cpm
cpm - t0 test (incorporation of acetate) [1, 8]: 194703 cpm
% Control (NEFA liberation) ([2]; 10^−2 M): 92%
Average of the NEFA ([2]; 10^−2 M): 131 µM
% Control (NEFA liberation) ([2]; 10^−3 M (1 mM)): 103%
Average of the NEFA ([2]; 10^−3 M (1 mM)): 145 µM
% Control (NEFA liberation) ([2]; 10^−4 M): 96%
Average of the NEFA ([2]; 10^−4 M): 135 µM
% Control (NEFA liberation) ([2]; 10^−5 M): 107%
Average of the NEFA ([2]; 10^−5 M): 151 µM
% Control (NEFA liberation) ([2]; 10^−6 M (1 μM)): 110%
Average of the NEFA ([2]; 10^−6 M (1 μM)): 156 µM
stimulation of lipolysis [2, 9]: did not stimulate lipolysis

CC(C)[C@H](C)CC[C@@H](C)[C@H]1CC[C@H]2[C@@H]3CC=C4C[C@@H](O)CC[C@]4(C)[C@H]3CC[C@]12C [Campesterol, campesterol]
incorporation of acetate by isolated human adipocytes (conclusion) [1]: inhibit the incorporation of acetate
% control (incorporation of acetate) [1, 3]: 92%
Average of cpm (incorporation of acetate) [1, 3]: 191817 cpm
cpm - t0 test (incorporation of acetate) [1, 3]: 185352 cpm
% control (incorporation of acetate) [1, 4]: 101%
% inhibition (incorporation of acetate) [1, 4]: no significant effect
Average of cpm (incorporation of acetate) [1, 4]: 243051 cpm
cpm - t0 test (incorporation of acetate) [1, 4]: 236586 cpm
% control (incorporation of acetate) [1, 5]: 90%
Average of cpm (incorporation of acetate) [1, 5]: 188278 cpm
cpm - t0 test (incorporation of acetate) [1, 5]: 181813 cpm
% control (incorporation of acetate) [1, 6]: 85%
Average of cpm (incorporation of acetate) [1, 6]: 206655 cpm
cpm - t0 test (incorporation of acetate) [1, 6]: 200190 cpm
% control (incorporation of acetate) [1, 7]: 74%
Average of cpm (incorporation of acetate) [1, 7]: 156448 cpm
cpm - t0 test (incorporation of acetate) [1, 7]: 149983 cpm
% control (incorporation of acetate) [1, 8]: 48%
Average of cpm (incorporation of acetate) [1, 8]: 119960 cpm
cpm - t0 test (incorporation of acetate) [1, 8]: 113495 cpm
inhibition at 10 µM [1, 3]: 8%
inhibition at 10 µM [1, 4]: 0%
inhibition at 100 µM [1, 5]: 10%
inhibition at 100 µM [1, 6]: 15%
inhibition at 1000 µM [1, 7]: 26%
inhibition at 1000 µM [1, 8]: 52%
% Control (NEFA liberation) ([2]; 10^−2 M): 118%
Average of the NEFA ([2]; 10^−2 M): 167 µM
% Control (NEFA liberation) ([2]; 10^−3 M (1 mM)): 98%
Average of the NEFA ([2]; 10^−3 M (1 mM)): 138 µM
% Control (NEFA liberation) ([2]; 10^−4 M): 109%
Average of the NEFA ([2]; 10^−4 M): 155 µM
% Control (NEFA liberation) ([2]; 10^−5 M): 99%
Average of the NEFA ([2]; 10^−5 M): 140 µM
% Control (NEFA liberation) ([2]; 10^−6 M (1 μM)): 117%
Average of the NEFA ([2]; 10^−6 M (1 μM)): 166 µM
stimulation of lipolysis [2, 9]: did not stimulate lipolysis
